Assay [1] deals with CD69 expression on CD19+ B cells in human whole blood. Kind of assay: In Vitro whole blood CD69 Assay. The note with it: B-cell, read-out: In Vitro HWB CD69 Assay IC50 Score. Format: cell-based. The protocol:
Human heparinized venous blood from health donors was aliquoted into 96-well plate and “spiked” with serial dilutions of formula I compounds in DMSO or with DMSO without drug. The final concentration of DMSO in all wells was 0.1%. The plate was incubated at 37° C. for 30 min. Drug-containing samples were stimulated with 0.1 μg/mL mouse anti-human IgD-dextran (1A62) or 20 μg/mL polyclonal rabbit F(ab′)2 anti-human IgD. Phosphate-buffered saline (PBS) was added to the negative control unstimulated sample and the plates were incubated overnight (18 to 22 hours) at 37° C. Cells were stained with fluorochrome-conjugated anti-CD19 and anti-CD69 antibodies. Lyse/fix solution was used to remove red blood cells by hypotonic lysis and to fix the remaining cells, which were then analyzed by flow cytometry. CD19+ B cells were gated and analyzed for CD69 expression.

Another assay has as its target T1, BTK (Homo sapiens, UniProt Q06187).
T1 construct: purchased Upstate 14-552
Kind of assay: In Vitro BTK Kinase Assay: Btk-PolyGAT-LS Assay. The note with it: active BTK enzyme 0.25 nM, polyGAT 100 nM, 30 minutes, TRF readout; read-out: In Vitro BTK Kinase Assay IC50 Score. The assay is classed as biochemical. As for the experimental part: The purpose of the BTK in vitro assay is to determine compound potency against BTK through the measurement of IC50. Compound inhibition is measured after monitoring the amount of phosphorylation of a fluorescein-labeled polyGAT peptide (Invitrogen PV3611) in the presence of active BTK enzyme (Upstate 14-552), ATP, and inhibitor. The BTK kinase reaction was done in a black 96 well plate (costar 3694). For a typical assay, a 24 μL aliquot of a ATP/peptide master mix (final concentration; ATP […], polyGAT 100 nM) in kinase buffer (10 mM Tris-HCl pH 7.5, 10 mM MgCl2, 200 μM […], 5 mM DTT, 0.01% Triton X-100, and 0.2 mg/ml casein) is added to each well. Next, […] of a 4-fold, 40× compound titration in 100% DMSO solvent is added, followed by adding 15 μL of BTK enzyme mix in 1× kinase buffer (with a final concentration of 0.25 nM). The assay is incubated for 30 minutes before being stopped with 28 μL of a 50 mM EDTA solution. Aliquots (5 uL) of the kinase reaction are transferred to a low volume white 384 well plate (Coming 3674), and 5 μL of a 2× detection buffer (Invitrogen PV3574, with 4 nM Tb—PY20 antibody, Invitrogen PV3552) is added. The plate is covered and incubated for 45 minutes at room temperature. Time resolved fluorescence (TRF) on Molecular Devices M5 (332 nm excitation; 488 nm emission; 518 nm fluorescein emission) is measured. IC50 values are calculated using a four parameter fit with 100% enzyme activity determined from the DMSO control and 0% activity from the EDTA control.

[2] abbreviates: human heparinized whole blood, anti-human IgD stimulation overnight, CD19+ B cells, flow cytometry.

Counter-ions that a name gives are not always drawn. Like-named read-outs stand apart in the source and are kept apart here.

Broadly, the IC50 is the concentration that inhibits the measured activity by half.

T1 sequence (Q06187 whole entry): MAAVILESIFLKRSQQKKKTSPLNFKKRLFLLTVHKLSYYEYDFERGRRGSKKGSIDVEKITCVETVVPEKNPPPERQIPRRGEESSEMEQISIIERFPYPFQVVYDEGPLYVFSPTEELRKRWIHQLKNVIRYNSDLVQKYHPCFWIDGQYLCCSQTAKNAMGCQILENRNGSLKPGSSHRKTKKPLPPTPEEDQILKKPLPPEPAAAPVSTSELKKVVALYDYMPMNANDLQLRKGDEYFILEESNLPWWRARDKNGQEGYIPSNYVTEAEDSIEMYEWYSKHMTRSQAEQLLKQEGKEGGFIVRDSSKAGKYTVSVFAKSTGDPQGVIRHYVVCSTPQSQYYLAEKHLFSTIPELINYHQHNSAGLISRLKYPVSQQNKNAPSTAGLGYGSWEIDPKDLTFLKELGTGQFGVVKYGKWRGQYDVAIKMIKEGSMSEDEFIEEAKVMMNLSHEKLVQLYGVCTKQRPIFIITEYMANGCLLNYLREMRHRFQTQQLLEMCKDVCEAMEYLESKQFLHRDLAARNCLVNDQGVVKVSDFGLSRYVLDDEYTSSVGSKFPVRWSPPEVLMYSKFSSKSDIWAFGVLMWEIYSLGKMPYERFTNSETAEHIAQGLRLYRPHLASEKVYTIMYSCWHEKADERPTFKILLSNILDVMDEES

`Cn1cc(-c2cc3nccn3c(-c3ccc(CNC(=O)c4nnc(C(C)(C)C)o4)cc3)n2)cn1` [Example 61, 5-(tert-butyl)-N-(4-(7-(1-methyl-1H-pyrazol-4-yl)imidazo[1,2-c]pyrimidin-5-yl)benzyl)-1,3,4-oxadiazole-2-carboxamide]: the IC50 is 1000 to 10000 nM in assay [1] (setting [2]) and 10 to 1000 nM on BTK. For the compound `C[C@@H]1CN(c2nc(-c3cnn(C)c3)cn3nccc23)CC[C@@H]1CNC(=O)c1noc(C2(C)CC2)n1` (single isomer, unassigned) [Example 146], the IC50 in assay [1] (setting [2]) lay within 1000 to 10000 nM; at BTK, 1 to 10 nM. Taken in the same sequence, the figures for `Cc1cc(-c2nc(N3CCN(C)CC3)cn3nccc23)ccc1CNC(=O)c1nnn(C(C)(C)C)n1` [Example 130] were 1000 to 10000 nM and 1 to 10 nM. For `Cn1cc(-c2cc(-c3ccc(CNC(=O)c4noc(C5(C)CC5)n4)c(F)c3)c3ccnn3c2)cn1` [Example 67, N-(2-fluoro-4-(6-(1-methyl-1H-pyrazol-4-yl)pyrazolo[1,5-a]pyridin-4-yl)benzyl)-5-(1-methylcyclopropyl)-1,2,4-oxadiazole-3-carboxamide], the IC50 was less than 1000 nM in assay [1] (Homo sapiens) and less than 1 nM on BTK. `Cn1cc(-c2cn3nccc3c(N3CCC(C)(CNC(=O)c4nnn(C(C)(C)C)n4)CC3)n2)cn1` [Example 43, 2-(tert-butyl)-N-((4-methyl-1-(6-(1-methyl-1H-pyrazol-4-yl)pyrazolo[1,5-a]pyrazin-4-yl)piperidin-4-yl)methyl)-2H-tetrazole-5-carboxamide]: the IC50 fell in the range of 1000 to 10000 nM in assay [1] (setting [2]) and 10 to 1000 nM at BTK. `Cc1cc(-c2nc(-c3cnn(C)c3)cc3nccn23)ccc1CN1Cc2nc(C(C)(C)C)sc2C1=O` [Example 38, 2-(tert-butyl)-5-(2-methyl-4-(7-(1-methyl-1H-pyrazol-4-yl)imidazo[1,2-c]pyrimidin-5-yl)benzyl)-4,5-dihydro-6H-pyrrolo[3,4-d]thiazol-6-one]: the IC50 in assay [1] (setting [2]) was 1000 to 10000 nM; on BTK it was less than 1 nM. For `CN1CCN(c2cn3nccc3c(-c3ccc(CNC(=O)c4nnc(C(C)(C)C)o4)c(F)c3)n2)CC1` [Example 127], the IC50 on BTK lay within 10 to 1000 nM.

As to `Cn1cc(-c2cn3nccc3c(N3CCC(F)(CNC(=O)c4cn(C(C)(C)C)nn4)CC3)n2)cn1` [Example 162, 1-(tert-butyl)-N-((4-fluoro-1-(6-(1-methyl-1H-pyrazol-4-yl)pyrazolo[1,5-a]pyrazin-4-yl)piperidin-4-yl)methyl)-1H-1,2,3-triazole-4-carboxamide trifluoroacetate], on BTK, the IC50 is 10 to 1000 nM. For the compound `CC(C)(C)n1ccc(C(=O)NCc2ccc(-c3nc(N4CCOCC4)cn4nccc34)cc2)n1` [Example 28, 1-(tert-butyl)-N-(4-(6-morpholinopyrazolo[1,5-a]pyrazin-4-yl)benzyl)-1H-pyrazole-3-carboxamide], the IC50 on BTK fell in the range of 1000 to 10000 nM. Still for that read-out and setting: with `Cc1cc(-c2nc(-c3cnn(C)c3)cn3nccc23)ccc1CN1CCN(CC2COC2)CC1=O` [Example 32, 1-(2-methyl-4-(6-(1-methyl-1H-pyrazol-4-yl)pyrazolo[1,5-a]pyrazin-4-yl)benzyl)-4-(oxetan-3-ylmethyl)piperazin-2-one] the figure was 10 to 1000 nM; with `Cn1cc(-c2cn3nccc3c(N3CCCC(CNC(=O)c4noc(C(C)(C)C)n4)CC3)n2)cn1` (stereo not shown) [Example 166, 5-(tert-butyl)-N-((1-(6-(1-methyl-1H-pyrazol-4-yl)pyrazolo[1,5-a]pyrazin-4-yl)azepan-4-yl)methyl)-1,2,4-oxadiazole-3-carboxamide], 10 to 1000 nM. For `Cc1cc(-c2nc(-c3cnn(C)c3)cn3nccc23)ccc1CN1CCN(C2COC2)C(C)C1=O` (stereo not shown) [Example 37, 3-methyl-1-(2-methyl-4-(6-(1-methyl-1H-pyrazol-4-yl)pyrazolo[1,5-a]pyrazin-4-yl)benzyl)-4-(oxetan-3-yl)piperazin-2-one], at BTK, the IC50 lay in the range of 10 to 1000 nM.

As to `CN1CCN(CC2CCN(c3nc(-c4cnn(C)c4)cn4nccc34)CC2)C(=O)C1` [Example 171, 4-methyl-1-((1-(6-(1-methyl-1H-pyrazol-4-yl)pyrazolo[1,5-a]pyrazin-4-yl)piperidin-4-yl)methyl)piperazin-2-one], the IC50 on BTK fell in the range of 1000 to 10000 nM. Same read-out and setting: then `CN1CCN(c2cn3nccc3c(-c3ccc(CNC(=O)c4coc(C(C)(C)C)n4)c(F)c3)n2)CC1` [Example 129, 2-(tert-butyl)-N-(2-fluoro-4-(6-(4-methylpiperazin-1-yl)pyrazolo[1,5-alpyrazin-4-yl)benzyl)oxazole-4-carboxamide trifluoroacetate], with 10 to 1000 nM. Take `Cc1cc(-c2nc(N3CCOCC3)cn3nccc23)ccc1CNC(=O)c1cnn(C(C)(C)C)n1` [Example 123, 2-(tert-butyl)-N-(2-methyl-4-(6-morpholinopyrazolo[1,5-a]pyrazin-4-yl)benzyl)-2H-1,2,3-triazole-4-carboxamide]: at BTK, the IC50 fell in the range of 10 to 1000 nM.

As to `Cn1cc(-c2cn3nccc3c(N3CC4CCC(C3)C4CNC(=O)c3noc(C(C)(C)C)n3)n2)cn1` [Example 165, 5-(tert-butyl)-N-(((1R,5S,8r)-3-(6-(1-methyl-1H-pyrazol-4-yl)pyrazolo[1,5-a]pyrazin-4-yl)-3-azabicyclo[3.2.1]octan-8-yl)methyl)-1,2,4-oxadiazole-3-carboxamide], the IC50 on BTK lay in the range of 10 to 1000 nM. Still for that read-out and setting: with `C[C@@H]1CN(c2nc(-c3cnn(C)c3)cn3nccc23)CC[C@@H]1CNC(=O)c1cn(C(C)(C)C)nn1` (single isomer, unassigned) [Example 150] the figure was 10 to 1000 nM; with `Cn1cc(-c2cn3nccc3c(N3CCC(C)(CNC(=O)c4noc(C5(C)CC5)n4)C3)n2)cn1` (stereo not shown) [Example 51, N-((3-methyl-1-(6-(1-methyl-1H-pyrazol-4-yl)pyrazolo[1,5-a]pyrazin-4-yl)pyrrolidin-3-yl)methyl)-5-(1-methylcyclopropyl)-1,2,4-oxadiazole-3-carboxamide], 1000 to 10000 nM. `Cn1cc(-c2cn3nccc3c(-c3cc(F)c(CNC(=O)c4ccn(C(C)(C)C)n4)cc3F)n2)cn1` [Example 96, 1-(tert-butyl)-N-(2,5-difluoro-4-(6-(1-methyl-1H-pyrazol-4-yl)pyrazolo[1,5-a]pyrazin-4-yl)benzyl)-1H-pyrazole-3-carboxamide]: at BTK, the IC50 fell in the range of 10 to 1000 nM. For `CC(C)(C)c1nc(C(=O)NCc2ccc(-c3nc(N4CCOCC4)cn4nccc34)cc2F)co1` [Example 125, 2-(tert-butyl)-N-(2-fluoro-4-(6-morpholinopyrazolo[1,5-a]pyrazin-4-yl)benzyl)oxazole-4-carboxamide], the IC50 at BTK was in the range of 10 to 1000 nM.

Turning to `Cc1cc(-c2nc(-c3cnn(C4COC4)c3)cn3nccc23)ccc1CNC(=O)c1noc(C(C)(C)C)n1` [Example 55, 5-(tert-butyl)-N-(2-methyl-4-(6-(1-(oxetan-3-yl)-1H-pyrazol-4-yl)pyrazolo[1,5-a]pyrazin-4-yl)benzyl)-1,2,4-oxadiazole-3-carboxamide], the IC50 at BTK is less than 1 nM. On to `Cc1cc(-c2nc(N3CCOCC3)cn3nccc23)ccc1CNC(=O)c1noc(C2(C)CC2)n1` [Example 126, N-(2-methyl-4-(6-morpholinopyrazolo[1,5-a]pyrazin-4-yl)benzyl)-5-(1-methylcyclopropyl)-1,2,4-oxadiazole-3-carboxamide], for which, at BTK, the IC50 is 1 to 10 nM.

As for `CC(C)CN1CCN(CC2CCN(c3nc(-c4cnn(C)c4)cn4nccc34)CC2)C(=O)C1` [Example 168, 4-isobutyl-1-((1-(6-(1-methyl-1H-pyrazol-4-yl)pyrazolo[1,5-a]pyrazin-4-yl)piperidin-4-yl)methyl)piperazin-2-one], the IC50 at BTK was 10 to 1000 nM. `CC(C)(C)c1nc(C(=O)NCc2ccc(-c3nc(N4CCC4)cn4nccc34)cc2)no1` [Example 134, N-(4-(6-(azetidin-1-yl)pyrazolo[1,5-a]pyrazin-4-yl)benzyl)-5-(tert-butyl)-1,2,4-oxadiazole-3-carboxamide]: the IC50 at BTK fell in the range of 1 to 10 nM. As for `CCCN1CCN(CC2CCN(c3nc(-c4cnn(C)c4)cn4nccc34)CC2)C(=O)C1` [Example 170, 1-((1-(6-(1-methyl-1H-pyrazol-4-yl)pyrazolo[1,5-a]pyrazin-4-yl)piperidin-4-yl)methyl)-4-propylpiperazin-2-one hydrochloride], at BTK, the IC50 lay within 1000 to 10000 nM.
